Test results: patent US6399349B1, “Human aminopeptidase P gene” (priority 1997, dated 2002)
Where two headings read alike, the source gives them in different places. Blank lines part the entries; values can stand above or below the molecule they belong to. Where no end group is shown, it is not given here. [ ]: non-standard residue; d: D form. Hyp = O=C(O)[C@@H]1C[C@@H](O)CN1

Tests used:
AmP and ACE = experiment: Mean systemic arterial blood pressure effects of BK injected i.v. or i.a. (log dose-response curves)
Experimental: To the extent that pulmonary AmP contributes to BK inactivation, saturation of AmP with an inhibitor or alternative substrate should, in effect, potentiate blood pressure effects of i.v. BK.
To clarify relative contributions of ACE and AmP to the metabolic fate of BK administered i.v., blood pressure effects of i.v. BK under control conditions and then after administration of a long-acting ACE inhibitor, RAC-X-65, were compared. After ACE inhibition, BK was injected (i.v. and i.a.) alone or BK co-mixed with APPBz at a dose capable of saturating AmP (2 μmol/kg).

[1] = biological target: T1, pulmonary endothelial AmP (Rattus norvegicus, UniProt Q99MA2); experiment: in vivo; settings: read-out: ED50: coinjected dose that reduces hydrolysis of APPBz-3H by half
T1 sequence (Q99MA2 23-650): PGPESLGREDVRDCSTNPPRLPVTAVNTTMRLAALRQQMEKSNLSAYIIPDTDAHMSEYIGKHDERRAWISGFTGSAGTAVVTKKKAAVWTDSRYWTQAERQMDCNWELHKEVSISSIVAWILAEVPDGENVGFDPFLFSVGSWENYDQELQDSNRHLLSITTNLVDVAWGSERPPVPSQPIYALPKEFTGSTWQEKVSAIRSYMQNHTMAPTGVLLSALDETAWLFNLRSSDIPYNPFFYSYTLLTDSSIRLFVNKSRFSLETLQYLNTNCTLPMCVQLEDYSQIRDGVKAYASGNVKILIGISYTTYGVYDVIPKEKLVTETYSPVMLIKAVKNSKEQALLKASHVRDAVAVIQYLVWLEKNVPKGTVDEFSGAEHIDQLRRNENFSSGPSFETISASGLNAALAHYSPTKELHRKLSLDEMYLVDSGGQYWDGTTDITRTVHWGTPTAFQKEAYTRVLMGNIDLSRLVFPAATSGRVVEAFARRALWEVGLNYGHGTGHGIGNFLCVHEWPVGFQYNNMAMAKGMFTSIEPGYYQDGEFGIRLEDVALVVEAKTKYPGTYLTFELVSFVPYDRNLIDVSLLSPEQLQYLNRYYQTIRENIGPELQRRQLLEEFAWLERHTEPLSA
Experimental: (§1) The immediate metabolic fate of the AmP synthetic substrate Arg-Pro-Pro-[^3H]benzylamide (APPBz-^3H) (20 Ci/mmol) during a single transit from the right heart to the left was examined. Effects of increasing quantities of carrier APPBz and alternative AmP substrates such as bradykinin (BK) and des-Arg^9-BK (31) were then measured.

[2] = 2-3 sec, right to left side of the heart; cited from earlier work
Pig kidney AmP = biological target: T2, Pig kidney AmP (Sus scrofa, UniProt Q95333); settings: concentration that derivatizes two H residues per molecule of AmP; cited from earlier work
T2 construct: host or cells: pig kidney
T2 sequence (Q95333 22-649): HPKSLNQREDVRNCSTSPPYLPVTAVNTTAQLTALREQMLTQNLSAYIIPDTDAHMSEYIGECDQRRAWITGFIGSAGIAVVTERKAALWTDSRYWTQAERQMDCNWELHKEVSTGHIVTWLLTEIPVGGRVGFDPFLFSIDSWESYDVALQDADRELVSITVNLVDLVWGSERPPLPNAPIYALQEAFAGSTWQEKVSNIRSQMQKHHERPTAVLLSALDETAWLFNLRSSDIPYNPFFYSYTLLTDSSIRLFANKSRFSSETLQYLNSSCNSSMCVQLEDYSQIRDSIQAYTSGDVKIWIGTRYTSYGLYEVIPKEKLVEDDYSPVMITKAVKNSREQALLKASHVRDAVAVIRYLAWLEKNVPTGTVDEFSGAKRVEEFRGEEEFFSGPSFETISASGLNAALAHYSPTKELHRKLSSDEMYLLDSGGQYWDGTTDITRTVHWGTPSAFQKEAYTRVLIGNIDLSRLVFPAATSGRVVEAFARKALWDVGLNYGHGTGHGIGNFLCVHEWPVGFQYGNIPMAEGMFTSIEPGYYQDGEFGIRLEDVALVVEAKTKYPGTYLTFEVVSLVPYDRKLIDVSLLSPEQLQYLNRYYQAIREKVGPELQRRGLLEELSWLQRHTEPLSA

[3] = biological target: rat lung aminopeptidase P (rat) (UniProt Q99MA2); experiment: cell-based or functional assay
AmP = settings: cited from earlier work
[4] = biological target: T1, pulmonary endothelial AmP; settings: coinjected with tracer APPBz-3H
Experimental: as §1

guinea pig serum AmP = settings: in vitro; cited from earlier work

Molecule: C[C@H](N[C@@H](CCC(=O)Nc1ccccc1)C(=O)O)C(=O)N1CCC[C@H]1C(=O)O (racemic) [RAC-X-65]
- factor by which i.v. BK curves lay to the right of i.a. curves after ACE inhibition (AmP and ACE; after ACE inhibition): about four
- effect of ACE inhibition on BK log dose-response curves (AmP and ACE; long-acting ACE inhibitor, BK i.v. and i.a.): shifted both i.v. and i.a. log dose-response curves leftward

Molecule: RPPGFSPFR [BK, Arg-Pro-Pro-Gly-Phe-Ser-Pro-Phe-Arg]
- ED50 [1]: 0.013 µmol/kg
- number of half-lifes BK is degraded through in a single transit [2]: 5-8 half-lifes
- degradation of BK by AmP alone (AmP and ACE; computed from 4-fold potentiation, PF=2^n, less than three sec): 75%

Molecule: CCOC(=O)OC(=O)OCC [diethylpyrocarbonate]
- inactivation of pig kidney AmP (Pig kidney AmP): completely inactivated

- dose that completely inhibits the hydrolysis of coinjected APPBz-^3H [3]: 2 µmol/kg
- dose that reduces by half the fractional hydrolysis of coinjected APPBz-^3H in a single pulmonary transit in vivo [3]: 42 nmol/kg b.w.
Molecule: Arg-Pro-Pro-benzylamide (peptide)

Molecule: NC(=O)CI [iodoacetamide]
- inhibition of AmP (AmP): not inhibited

- ED50 for inhibition of the hydrolysis of coinjected APPBz-^3H in vivo [3]: 107 nmol/kg
Molecule: des-Arg^9-bradykinin (peptide)

Molecule: bradykinin (peptide)
- dose that reduces by half the hydrolysis of coinjected APPBz-^3H in vivo [3]: 13 nmol/kg

Molecule: CCN1C(=O)C=CC1=O [N-ethylmaleimide]
- inhibition of AmP (AmP): not inhibited

Molecule: O=C(O)c1cc[c]([Hg+])cc1.[OH-] [p-hydroxy-mercuribenzoate]
- inhibition of AmP (AmP; low concentration (~10 nM)): ~70%

- ED50: coinjected dose that reduces hydrolysis of APPBz-3H by half [4]: 30 nmol/kg
Molecule: des-Arg^1-BK: BK fragment formed by AmP; not a substrate but binds to the catalytic site (PPGFSPFR)
- affinity for AmP relative to BK (AmP): as great an affinity for AmP as BK itself

- ED50: coinjected dose that reduces hydrolysis of APPBz-3H by half [4]: 107 nmol/kg
Molecule: des-Arg^9-BK: alternative AmP substrate, bradykinin lacking Arg9 (RPPGFSPF)

Molecule: Gly-Pro-Hyp-Gly-Ala-Gly (GP[Hyp]GAG) [AAP, putative hormone called antiarrhythmic peptide]
- binding of AAP by AmP (guinea pig serum AmP): high affinity
